Data on 10 compounds can be found in patent US20040214834A1, “Pyrazolo-pyridines for the treatment of herpes infections” (priority 2001, published 2004).

The assay deals with HSV-1. In words: HSV-1 replication in infected Vero 76 cells, viral DNA detected by hybridization capture. As to conditions: Human alphaherpesvirus 1; HSV-1, Vero 76 cells, MOI=0.001, 40-48 hours incubation. Format: cell-based, herpes simplex virus 1. As to the method: Vero 76 cells were maintained in MEM with Earle's salts, L-glutamine, 8% FBS (Hyclone, A-1111-L) and 100 units/mL Penicillin-100 μg/mL Streptomycin. For assay conditions, FBS was reduced to 2%. Cells are seeded into 96-well tissue culture plates at a density of 5×10^4 cells/well after being incubated for 45 min at 37° C. in the presence of HSV-1 or HSV-2 (MOI=0.001). Test compounds are added to the wells and the plates are incubated at 37° C. for 40-48 hours. Cell lysates are prepared as follows: media was removed and replaced with 150 μL/well 0.2 N NaOH with 1% Igepal CA 630 or NP-40. Plates were incubated up to 14 days at room temperature in a humidified chamber to prevent evaporation.
For the detection probe, a gel-purified, digoxigenin-labeled, 710-bp PCR fragment of the HSV UL-15 sequence was utilized. PCR conditions included 0.5 μM primers, 180 μM dTTP, 20 μM dUTP-digoxigenin (Boehringer Mannheim 1558706), 200 μM each of dATP, dCTP, and dGTP, 1× PCR Buffer II (Perkin Elmer), 2.5 mM MgCl2, 0.025 units/μL of AmpliTaq Gold polymerase (Perkin Elmer), and 5 ng of gel-purified HSV DNA per 100 μL Extension conditions were 10 min at 95° C., followed by 30 cycles of 95° C. for 1 min. 55° C. for 30 sec. and 72° C. for 2 min. The amplification was completed with a 10-min incubation at 72° C. […] Single-stranded transcripts were purified with Promega M13 Wizard kits. The final product was mixed 1:1 with a mixture of 6 M GuSCN, 100 mM EDTA and 200 μg/mL herring sperm DNA and stored at 4° C.
The capture DNA plasmid (HSV UL13 region in pUC) was linearized by cutting with Xbal, denatured for 15 min at 95° C. and diluted immediately into Reacti-Bind DNA Coating Solution (Pierce, 17250, diluted 1:1 with TE buffer, pH 8) at 1 ng/μL. 75 μL/well were added to Corning (#3922 or 9690) white 96-well plates and incubated at room temperature for at least 4 hrs before washing twice with 300 μL/well 0.2×SSC/0.05% Tween-20 (SSC/T buffer). The plates were then incubated overnight at room temperature with 150 μL/well 0.2 N NaOH, 1% IGEPAL and 10 μg/mL herring sperm DNA.
Twenty-seven (27) μL of cell lysate was combined with 45 μL of hybridization solution (final concentration: 3M GuSCN, 50 mM EDTA, 100 μg/ml salmon sperm DNA, 5× Denhardt's solution, 0.25×APE, and 5 ng of the digoxigenin-labeled detection probe). APE is 1.5 M NH4-acetate, 0.15 M ammonium phosphate monobasic, and 5 mM EDTA adjusted to pH 6.0. Mineral oil (50 μL) was added to prevent evaporation. The hybridization plates were incubated at 95° C. for 10 minutes to denature the DNA, then incubated at 42° C. overnight. The wells were washed 6× with 300 μL/well SSC/T buffer then incubated with 75 μL/well anti-digoxigenin- HRP-conjugated antibody (Boehringer Mannheim 1207733, 1:5000 in TE) for 30 min at room temperature. The wells were washed 6× with 300 μL/well with PBS/0.05% Tween-20 before 75 μL/well SuperSignal LBA substrate (Pierce) was added. The plates were incubated at room temperature for 30 minutes and chemiluminescence was measured in a Wallac Victor reader.
The following results were obtained for HSV-1.
In turn, `CCSc1cc(NC2CCCC2)cc2c(-c3ccnc(NC4CCCC4)n3)c(-c3ccc(F)cc3)nn12` [Example 2, N-Cyclopentyl-3-[2-(cyclopentylamino)-4-pyrimidinyl]-7-(ethylsulfanyl)-2-(4-fluorophenyl)pyrazolo[1,5-δ]pyridin-5-amine] displayed a half-inhibitory concentration (IC50) of 0.074 µM.

For `Cc1cc(NC2CCCC2)cc2c(-c3ccnc(NC4CCCC4)n3)c(-c3ccc(F)cc3)nn12` [Example 3, N-Cyclopentyl-3-[2-(cyclopentylamino)-4-pyrimidinyl]-2-(4-fluorophenyl)-7-methylpyrazolo[1,5-α]pyridin-5-amine], the IC50 was found to be 0.322 µM.

As for `CCOc1cc(NC2CCCC2)cc2c(-c3ccnc(NC4CCCC4)n3)c(-c3ccc(F)cc3)nn12` [Example 4, N-Cyclopentyl-3-[2-(cyclopentylamino)-4-pyrimidinyl]-7-ethoxy-2-(4-fluorophenyl)pyrazolo[1,5-α]pyridin-5-amine], the 50% inhibitory concentration (IC50) stood at 0.16 µM.

As for `CSc1cc(NC2CCCC2)cc2c(-c3ccnc(NC4CCCC4)n3)c(-c3ccc(F)cc3)nn12` [Example 5, N-Cyclopentyl-3-[2-(cyclopentylamino)-4-pyrimidinyl]-2-(4-fluorophenyl)-7-(methylsulfanyl)pyrazolo[1,5-α]pyridin-5-amine], the IC50 turned out to be 0.13 µM.

As to `COCCOc1cc(NC2CCCC2)cc2c(-c3ccnc(NC4CCCC4)n3)c(-c3ccc(F)cc3)nn12` [Example 6, N-Cyclopentyl-3-[2-(cyclopentylamino)-4-pyrimidinyl]-2-(4-fluorophenyl)-7-(2-methoxyethoxy)pyrazolo[1,5-α]pyridin-5-amine], half-maximal inhibition (IC50) required 0.082 µM.

As for `COc1ccc(-c2nn3c(SC)cc(NC4CCCC4)cc3c2-c2ccnc(NC3CCCC3)n2)cc1` [Example 9, N-Cyclopentyl-3-[2-(cyclopentylamino)-4-pyrimidinyl]-2-(4-methoxyphenyl)-7-(methylsulfanyl)pyrazolo[1,5-α]pyridin-5-amine], 0.135 µM corresponded to half-maximal inhibition (IC50).

As for `CCSc1cc(NC2CCCC2)cc2c(-c3ccnc(NC4CCCC4)n3)c(-c3ccc(OC)cc3)nn12` [Example 10, N-Cyclopentyl-3-[2-(cyclopentylamino)-4-pyrimidinyl]-7-(ethylsulfanyl)-2-(4-methoxyphenyl)pyrazolo[1,5-α]pyridin-5-amine], the IC50 amounted to 0.046 µM.

For the compound `COc1ccc(-c2nn3c(SC(C)C)cc(NC4CCCC4)cc3c2-c2ccnc(NC3CCCC3)n2)cc1` [Example 11, N-Cyclopentyl-3-[2-(cyclopentylamino)-4-pyrimidinyl]-7-(isopropylsulfanyl)-2-(4-methoxyphenyl)pyrazolo[1,5-α]pyridin-5-amine], 0.175 µM corresponded to half-maximal inhibition (IC50).

`COc1ccc(-c2nn3c(Sc4ccccc4)cc(NC4CCCC4)cc3c2-c2ccnc(NC3CCCC3)n2)cc1` [Example 12, N-Cyclopentyl-3-[2-(cyclopentylamino)-4-pyrimidinyl]-2-(4-methoxyphenyl)-7-(phenylsulfanyl)pyrazolo[1,5-α]pyridin-5-amine] displayed an IC50 of 2 µM.

Take `CC(C)Sc1cc(NC2CCCC2)cc2c(-c3ccnc(NC4CCCC4)n3)c(-c3ccc(F)cc3)nn12` [Example 13, N-Cyclopentyl-3-[2-(cyclopentylamino)-4-pyrimidinyl]-2-(4-fluorophenyl)-7-(isopropylsulfanyl)pyrazolo[1,5-α]pyridin-5-amine]: the IC50 turned out to be 0.26 µM.

Usually IC50 stands for the concentration that gives 50% inhibition. Low readings indicate greater potency, high ones weaker potency.
